From PMC3343029, “Crystal Structure of the Cysteine Desulfurase DndA from Streptomyces lividans Which Is Involved in DNA Phosphorothioation” (PLoS ONE, 2012)

Target: T1, DndA (Streptomyces lividans, UniProt A7TUX7, C344S)
T1 construct: full length residues 1-380, N-terminal His-tag (pET28a), expressed in E. coli BL21(DE3); homodimer; residues 2-359 in the model
Assay: X-ray crystallography, […] Å
Format: binding
Conditions: covalent; Schiff base with Lys200; crystals at pH 5.5 without L-cysteine

T1 sequence (A7TUX7 entry or part of it C344S): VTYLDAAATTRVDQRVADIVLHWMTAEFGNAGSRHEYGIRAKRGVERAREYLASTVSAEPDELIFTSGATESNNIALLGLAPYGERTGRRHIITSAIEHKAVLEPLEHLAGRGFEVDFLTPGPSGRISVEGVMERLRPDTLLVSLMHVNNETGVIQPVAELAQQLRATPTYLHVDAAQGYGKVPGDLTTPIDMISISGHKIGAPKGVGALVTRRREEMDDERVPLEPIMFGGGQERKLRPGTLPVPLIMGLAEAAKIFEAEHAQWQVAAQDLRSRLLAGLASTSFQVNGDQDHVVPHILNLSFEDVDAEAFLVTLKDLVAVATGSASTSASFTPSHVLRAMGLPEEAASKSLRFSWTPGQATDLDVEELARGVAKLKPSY

Question: For `Cc1ncc(COP(=O)(O)O)c(C=O)c1O` [PLP], which “X-ray crystallography, 2.4 Å” value is on record?
Answer: Its value is “there is a PLP cofactor which forms a Schiff base covalent bond with the amino”.
